The results in this text go back to patent US10759783B2, “Biaryl inhibitors of Bruton'S tyrosine kinase” (BIOGEN MA INC., priority 2013, dated 2020).

Where two headings read alike, the source gives them in different places. A value given as a limit tells only on which side of the number the result lay.

The target of test [1] is BTK (phospho-BTK) in human whole blood (Homo sapiens, UniProt Q06187). The experiment in a line: In vitro PD assay in human whole blood (pBTK assay).
For test [2], the target named is T1, BTK enzyme (Homo sapiens, UniProt Q06187).
T1 construct: purchased Upstate 14-552
T1 sequence (Q06187 whole entry): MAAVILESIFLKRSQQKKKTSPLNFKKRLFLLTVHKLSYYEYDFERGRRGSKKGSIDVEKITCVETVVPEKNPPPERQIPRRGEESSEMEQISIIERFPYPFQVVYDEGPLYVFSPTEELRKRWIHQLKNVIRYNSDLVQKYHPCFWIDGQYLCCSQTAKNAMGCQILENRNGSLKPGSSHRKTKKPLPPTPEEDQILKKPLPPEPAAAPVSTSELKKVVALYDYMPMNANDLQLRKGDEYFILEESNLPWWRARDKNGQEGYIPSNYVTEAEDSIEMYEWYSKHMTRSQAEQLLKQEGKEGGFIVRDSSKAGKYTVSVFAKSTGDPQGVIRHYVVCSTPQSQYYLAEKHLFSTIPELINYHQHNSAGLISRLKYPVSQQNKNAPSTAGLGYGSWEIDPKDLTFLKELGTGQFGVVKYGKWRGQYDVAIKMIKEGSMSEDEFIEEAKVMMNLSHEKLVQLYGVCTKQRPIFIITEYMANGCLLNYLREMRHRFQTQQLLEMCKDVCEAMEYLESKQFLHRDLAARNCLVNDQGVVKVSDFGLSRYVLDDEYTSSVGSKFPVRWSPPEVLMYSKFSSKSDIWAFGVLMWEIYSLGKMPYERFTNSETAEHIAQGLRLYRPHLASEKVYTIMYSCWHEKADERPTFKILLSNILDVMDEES
As to the kind of experiment: In vitro BTK kinase assay: BTK-POLYGAT-LS assay. It is filed as biochemical. Particulars: ATP 10 μM, read-out: IC50 (10uMATP). In a few lines:
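Human BTK activity was measured with final 10 μM ATP and 100 nM polyGAT substrate in pH 7.5 Tris buffer with 10 mM MgCl2, DTT, Triton X-100 and casein.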

BTK (phospho-BTK) in human whole blood, sequence (Q06187 whole entry): as above

As usually defined, the IC50 is the midpoint of a concentration-inhibition curve. Take `Cc1cc(-c2ccnc(Nc3cc4n(n3)CCN(C)C4)n2)ccc1CNC(=O)c1cnc(C(C)(C)C)s1` [Example I-55, 2-(tert-butyl)-N-(2-methyl-4-(2-((5-methyl-4,5,6,7-tetrahydropyrazolo[1,5-a]pyrazin-2-yl)amino)pyrimidin-4-yl)benzyl)thiazole-5-carboxamide]: the figures for the IC50 in test [1] and in test [2] were 1.5 to 10 µM and below 0.01 µM, respectively.
For `Cc1cc(-c2ccnc(Nc3cnn(CCO)c3)n2)ccc1CNC(=O)c1cnc(C(C)(C)C)s1` [Example I-37, 2-(tert-butyl)-N-(4-(2-((1-(2-hydroxyethyl)-1H-pyrazol-4-yl)amino)pyrimidin-4-yl)-2-methylbenzyl)thiazole-5-carboxamide], in that order: below 0.5 µM and below 0.01 µM.
The matching figures for `CC(C)C1CCN(C(=O)NC2CCCCc3cc(-c4ccnc(Nc5cnn([C@@H]6CCOC6)c5)n4)ccc32)C1` (stereo partly drawn) [Example I-344, 3-isopropyl-N-[2-[2-[[1-[(3R)-tetrahydrofuran-3-yl]pyrazol-4-yl]amino]pyrimidin-4-yl]-6,7,8,9-tetrahydro-5H-benzo[7]annulen-5-yl]pyrrolidine-1-carboxamide]: below 0.5 µM and below 0.01 µM.
With `Cc1cc(-c2ccnc(Nc3cnn(C(C)C)c3)n2)ccc1CNC(=O)N1CC(OC(C)(C)C)C1` [Example I-306, 3-tert-butoxy-N-[[4-[2-[(1-isopropylpyrazol-4-yl)amino]pyrimidin-4-yl]-2-methyl-phenyl]methyl]azetidine-1-carboxamide], the IC50 in test [1] (read-out: pBTK IC50, human whole blood, 37° C. for 30 min) is below 0.5 µM; in test [2], below 0.01 µM.
For the compound `CC(C)OC1CN(C(=O)NC2CNCCc3cc(-c4ccnc(Nc5cnn(C)c5)n4)ccc32)C1` (stereo not drawn) [Example I-352, 3-isopropoxy-N-[7-[2-[(1-methylpyrazol-4-yl)amino]pyrimidin-4-yl]-2,3,4,5-tetrahydro-1H-3-benzazepin-1-yl]azetidine-1-carboxamide], the values for the IC50 in test [1] and in test [2] were below 0.5 µM and 0.01 to 0.099 µM, respectively.
`CCn1cc(Nc2nccc(-c3ccc4c(c3)CCCCC4NC(=O)N3CC(OC(C)C)C3)n2)cn1` (stereo not drawn) [Example I-166, N-(2-(2-((1-ethyl-1H-pyrazol-4-yl)amino)pyrimidin-4-yl)-6,7,8,9-tetrahydro-5H-benzo[7]annulen-5-yl)-3-isopropoxyazetidine-1-carboxamide]: the IC50 is below 0.5 µM in test [1] and below 0.01 µM in test [2].
As for `Cn1cc(Nc2nccc(-c3ccc(CNC(=O)c4cc5c(s4)CCOC5)c(C(F)(F)F)c3)n2)cn1` [Example I-115, N-(4-(2-((1-methyl-1H-pyrazol-4-yl)amino)pyrimidin-4-yl)-2-(trifluoromethyl)benzyl)-6,7-dihydro-4H-thieno[3,2-c]pyran-2-carboxamide], the 50% inhibitory concentration (IC50) in test [1] is 0.5 to 1.5 µM; in test [2] it was below 0.01 µM.
For `Cc1cc(-c2ccnc(Nc3ccc(N4CCN(C)CC4)cn3)c2)ccc1CNC(=O)c1cnc(C(C)(C)C)s1` [Example I-70, 2-(tert-butyl)-N-(2-methyl-4-(2-((5-(4-methylpiperazin-1-yl)pyridin-2-yl)amino)pyridin-4-yl)benzyl)thiazole-5-carboxamide], in that order: below 0.5 µM and below 0.01 µM.
The matching figures for `Cc1cc(-c2ccnc(Nc3cnn(C4CCN(C)CC4)c3)n2)ccc1CN1Cc2nc(C(C)(C)C)sc2C1=O` [Example I-289, 2-tert-butyl-5-[[2-methyl-4-[2-[[1-(1-methyl-4-piperidyl)pyrazol-4-yl]amino]pyrimidin-4-yl]phenyl]methyl]-4H-pyrrolo[3,4-d]thiazol-6-one]: below 0.5 µM and below 0.01 µM.
Consider `Cc1cc(-c2ccnc(Nc3cnn(C(C)C)c3)n2)ccc1CNC(=O)c1cnn(C(C)(C)C)c1` [Example I-258, 1-tert-butyl-N-[[4-[2-[(1-isopropylpyrazol-4-yl)amino]pyrimidin-4-yl]-2-methyl-phenyl]methyl]pyrazole-4-carboxamide], for which the figures for the IC50 in test [1] and in test [2] were below 0.5 µM and below 0.01 µM, respectively.
For the compound `Cc1cc(-c2ccnc(Nc3cnn(C[C@@H](O)CN)c3)n2)ccc1CNC(=O)c1cnc(C(C)(C)C)s1` [Example I-129, (S)—N-(4-(2-((1-(3-amino-2-hydroxypropyl)-1H-pyrazol-4-yl)amino)pyrimidin-4-yl)-2-methylbenzyl)-2-(tert-butyl)thiazole-5-carboxamide], the half-inhibitory concentration (IC50) in test [1] was 0.5 to 1.5 µM; in test [2], below 0.01 µM.
The matching figures for `CN1CC(n2cc(Nc3nccc(-c4ccc(CNC(=O)c5cnn(C(C)(C)C)c5)c(C(F)(F)F)c4)n3)cn2)C1` [Example I-201, 1-(tert-butyl)-N-(4-(2-((1-(1-methylazetidin-3-yl)-1H-pyrazol-4-yl)amino)pyrimidin-4-yl)-2-(trifluoromethyl)benzyl)-1H-pyrazole-4-carboxamide]: below 0.5 µM and below 0.01 µM.
For `Cn1cc(Nc2nccc(-c3ccc(CNC(=O)c4cnn(C(C)(C)C)c4)c(C(F)(F)F)c3)n2)cn1` [Example I-202, 1-(tert-butyl)-N-(4-(2-((1-methyl-1H-pyrazol-4-yl)amino)pyrimidin-4-yl)-2-(trifluoromethyl)benzyl)-1H-pyrazole-4-carboxamide], in that order: below 0.5 µM and below 0.01 µM.
The matching figures for `CC(C)n1cc(Nc2nccc(-c3ccc(CNC(=O)N4CC(OC(C)(C)C)C4)c(C(F)(F)F)c3)n2)cn1` [Example I-199, 3-(tert-butoxy)-N-(4-(2-((1-isopropyl-1H-pyrazol-4-yl)amino)pyrimidin-4-yl)-2-(trifluoromethyl)benzyl)azetidine-1-carboxamide]: below 0.5 µM and below 0.01 µM.
`Cc1cc(-c2nc(Nc3cnn(C)c3)ncc2F)ccc1CNC(=O)c1cnc(C(C)(C)C)s1` [Example I-111, 2-(tert-butyl)-N-(4-(5-fluoro-2-((1-methyl-1H-pyrazol-4-yl)amino)pyrimidin-4-yl)-2-methylbenzyl)thiazole-5-carboxamide]: the concentration for half-maximal inhibition (IC50) is 1.5 to 10 µM in test [1] and below 0.01 µM in test [2].
The matching figures for `CC(C)OC1CN(C(=O)NC2CCCc3cc(-c4ccnc(Nc5cnn(C6CCN(C)CC6)c5)n4)ccc32)C1` (stereo not drawn) [Example I-326, 3-isopropoxy-N-[6-[2-[[1-(1-methyl-4-piperidyl)pyrazol-4-yl]amino]pyrimidin-4-yl]tetralin-1-yl]azetidine-1-carboxamide]: below 0.5 µM and below 0.01 µM.
Take `Cc1cc(-c2ccnc(Nc3cnn4c3CCC4)n2)ccc1CNC(=O)N1CCC(C(C)(C)C)C1` (stereo not drawn) [Example I-194, 3-(tert-butyl)-N-(4-(2-((5,6-dihydro-4H-pyrrolo[1,2-b]pyrazol-3-yl)amino)pyrimidin-4-yl)-2-methylbenzyl)pyrrolidine-1-carboxamide]: the results for the IC50 in test [1] and in test [2] were below 0.5 µM and below 0.01 µM, respectively.
The matching figures for `CCn1cc(Nc2nccc(-c3ccc(CNC(=O)c4cnn(C(C)(C)C)c4)c(C)c3)n2)cn1` [Example I-247, 1-(tert-butyl)-N-(4-(2-((1-ethyl-1H-pyrazol-4-yl)amino)pyrimidin-4-yl)-2-methylbenzyl)-1H-pyrazole-4-carboxamide]: below 0.5 µM and below 0.01 µM.
For `Cc1cc(-c2ccnc(Nc3cnn([C@H]4CC[C@H](C(=O)O)CC4)c3)n2)ccc1CNC(=O)c1cnc(C(C)(C)C)s1` [Example I-49, trans-4-(4-((4-(4-((2-(tert-butyl)thiazole-5-carboxamido)methyl)-3-methylphenyl)pyrimidin-2-yl)amino)-1H-pyrazol-1-yl)cyclohexanecarboxylic acid], in that order: below 0.5 µM and below 0.01 µM.
Take `Cc1cc(-c2ccnc(Nc3cnn(C)c3)n2)ccc1C(CO)NC(=O)c1cnc(C(C)(C)C)s1` (stereo not drawn) [Example I-108, 2-(tert-butyl)-N-(2-hydroxy-1-(2-methyl-4-(2-((1-methyl-1H-pyrazol-4-yl)amino)pyrimidin-4-yl)phenyl)ethyl)thiazole-5-carboxamide]: the IC50 in test [1] was 1.5 to 10 µM; in test [2] it was below 0.01 µM.
The matching figures for `CC(C)(C)C1CCN(C(=O)NCc2ccc(-c3ccnc(Nc4cnn(C5CCNC5)c4)n3)cc2C(F)(F)F)C1` [Example I-318, 3-tert-butyl-N-[8 4-[2-[[1-[(3R)-pyrrolidin-3-yl]pyrazol-4-yl]amino]pyrimidin-4-yl]-2-(trifluoromethyl)phenyl]methyl]pyrrolidine-1-carboxamide]: below 0.5 µM and below 0.01 µM.
`Cc1cc(-c2cc(Nc3cc4n(n3)CCS(=O)(=O)C4)ncn2)ccc1CNC(=O)c1cnn(C(C)(C)C)c1` [Example I-242, 1-(tert-butyl)-N-(4-(6-((5,5-dioxido-6,7-dihydro-4H-pyrazolo[5,1-c][1,4]thiazin-2-yl)amino)pyrimidin-4-yl)-2-methylbenzyl)-1H-pyrazole-4-carboxamide]: the IC50 was below 0.5 µM in test [1] and below 0.01 µM in test [2].
As to `Cc1cc(-c2ccnc(Nc3cnn(C4CC4)c3)n2)ccc1CNC(=O)N1CCC(C(C)(C)C)C1` (stereo not drawn) [Example I-308, 3-tert-butyl-N-[[4-[2-[(1-cyclopropylpyrazol-4-yl)amino]pyrimidin-4-yl]-2-methyl-phenyl]methyl]pyrrolidine-1-carboxamide], the 50% inhibitory concentration (IC50) is below 0.5 µM in test [1] and below 0.01 µM in test [2].
For `CN1CC[C@H](n2cc(Nc3nccc(-c4ccc(CNC(=O)N5CCC(C(C)(C)C)C5)c(C(F)(F)F)c4)n3)cn2)C1` (stereo partly drawn) [Example I-207, 3-(tert-butyl)-N-(4-(2-((1-((S)-1-methylpyrrolidin-3-yl)-1H-pyrazol-4-yl)amino)pyrimidin-4-yl)-2-(trifluoromethyl)benzyl)pyrrolidine-1-carboxamide], in that order: below 0.5 µM and below 0.01 µM.
